According to PubChem BioAssay (NCI):
Values joined by “and” are separate entries in the source; they are usually repeats but may differ in a detail not shown here. Equal entries are not always repeated.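 These data come from cells grown in 96-well plates and exposed to compound for 48 hours at five concentrations. GI50: concentration for 50% inhibition of growth. Definition used: TGI = concentration required for complete inhibition of growth.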

What was measured:
Assay in all cases: NCI anticancer screen, dose series, 48 h
HCT-15 colon = system: HCT-15 colon
OVCAR-3 ovarian = system: OVCAR-3 ovarian
NCI/ADR-RES ovarian = system: NCI/ADR-RES ovarian
HCT-116 colon = system: HCT-116 colon
UACC-62 melanoma = system: UACC-62 melanoma
SF-268 CNS = system: SF-268 CNS
TK-10 renal = system: TK-10 renal
SK-MEL-2 melanoma = system: SK-MEL-2 melanoma
CAKI-1 renal = system: CAKI-1 renal
OVCAR-4 ovarian = system: OVCAR-4 ovarian

| Compound | GI50 (HCT-15 colon) | TGI (HCT-15 colon) | GI50 (OVCAR-3 ovarian) | TGI (OVCAR-3 ovarian) | GI50 (NCI/ADR-RES ovarian) [µM] | TGI (NCI/ADR-RES ovarian) | GI50 (HCT-116 colon) | TGI (HCT-116 colon) | GI50 (UACC-62 melanoma) | TGI (UACC-62 melanoma) | GI50 (SF-268 CNS) | TGI (SF-268 CNS) | GI50 (TK-10 renal) [µM] | TGI (TK-10 renal) [µM] | GI50 (SK-MEL-2 melanoma) | TGI (SK-MEL-2 melanoma) | GI50 (CAKI-1 renal) | TGI (CAKI-1 renal) | GI50 (OVCAR-4 ovarian) | TGI (OVCAR-4 ovarian) |
| --- | --- | --- | --- | --- | --- | --- | --- | --- | --- | --- | --- | --- | --- | --- | --- | --- | --- | --- | --- | --- |
| O=[N+]([O-])c1ccccc1/C=N\NC(=S)N/N=C/c1ccccc1[N+](=O)[O-] | 3.76 µM | > 100 µM | 1.95 µM | 4.72 µM | 2.66 | > 100 µM | 3.78 µM | > 100 µM | 4.52 µM | > 100 µM | 5.73 µM | > 100 µM | 13.7 | > 100 | 6.41 µM | > 100 µM | 3.46 µM | > 100 µM | 20.6 µM | > 100 µM |
| CN(C)S(=O)(=O)c1cccc(C(=O)Nc2nc(-c3ccc(F)c(F)c3)cs2)c1 | > 40.4 µM | > 100 µM | 18.4 µM | > 95.4 µM | 5.32 | > 100 µM | 7.62 µM | > 100 µM | 7.81 µM | > 100 µM | 13.9 µM | > 100 µM | 18.1 | > 100 | 19.4 µM | > 100 µM | 10.9 µM | > 75.9 µM | 4.62 µM | > 84.1 µM |
| O=NNc1ccc(-c2ccccc2)cn1 |  | 56.1 µM |  | 53.1 µM |  | > 43.1 µM |  | 29.9 µM |  | 31.3 µM |  | 29.2 µM |  | 69 |  | 52 µM |  | 43.8 µM |  | > 70.6 µM |
| CN1CCN(C2=C(Cl)C(=O)c3ccccc3C2=O)CC1 | 1.77 µM | 3.41 µM | 1.39 µM | 2.69 µM | 2.03 | 4.57 µM | 1.42 µM | 2.75 µM | 1.65 µM | 3.11 µM | 2.82 µM | 10.9 µM | 1.71 | 3.29 | 3.15 µM | 7.96 µM | 1.77 µM | 3.39 µM | 1.59 µM | 2.95 µM |
| O=C(O)CCCN1C(=O)/C(=C/C(Cl)=C/c2ccccc2)SC1=S | 1.03 µM | 6.06 µM | 1.39 µM | 3.21 µM | 2.39 | 9.35 µM | 1.13 µM | 4 µM | 1.47 µM | 3.62 µM | 2.5 µM | 7.41 µM | 3.73 | 9.6 | 2.47 µM | 7.61 µM | 1.66 µM | 3.76 µM | 2.77 µM | 14.3 µM |
| NC(CSC(c1ccccc1)(c1ccccc1)c1ccccc1)C(=O)O (configuration not stated) | 2.31 µM and 1.79 µM | 51.1 µM and > 100 µM | 2.46 µM and 2.18 µM | 9.48 µM and 27.9 µM and 13 µM | 10.9 | 48.2 µM and > 100 µM | 0.512 µM and 0.425 µM | 55.3 µM and 64.2 µM and > 100 µM | 2.01 µM and 3.98 µM | 42.9 µM and > 100 µM | 4.35 µM and 1.71 µM | 63.3 µM and 85.7 µM | 6.22 | 83.5 | 1.51 µM and 0.886 µM | 5.34 µM and 9.72 µM and 5.63 µM | 15.2 µM and 7.17 µM | 51.6 µM and > 100 µM | 11.6 µM and 11.2 µM | 61 µM and > 100 µM |
| O=C1c2ccccc2C(=O)c2c1ccc1conc21 |  | 5.66 µM |  | 0.974 µM |  | 8.45 µM |  | 3.51 µM |  | 5.63 µM |  | 6.8 µM |  | 15.3 |  | 7.14 µM |  | 8.93 µM |  | 2.02 µM |
| COc1ccc(-n2nc(C)c3c(Nc4ccc(NC(=O)Nc5cccc(C(F)(F)F)c5)cc4)ncnc32)cc1 | 1.46 µM | 3.27 µM | 1.74 µM | 3.92 µM | 1.81 | 4.72 µM | 1.62 µM | 3.46 µM | 1.76 µM | 3.46 µM | 2.14 µM | 5.51 µM | 2.39 | 6.6 | 2.04 µM | 4.01 µM | 1.46 µM | 2.96 µM | 2.1 µM | 5.27 µM |
| O=C(CCN1CCCC1)Nc1ccc2c(Nc3ccc(F)cc3)c3ccccc3nc2c1 | 0.699 µM | 2.53 µM | 1.68 µM | 4.21 µM | 2.11 | 7.4 µM | 0.906 µM | 2.58 µM | 1.55 µM | 3.1 µM | 1.19 µM | 2.82 µM | 1.66 | 3.97 | 1.85 µM | 3.64 µM | 1.26 µM | 2.6 µM | 1.21 µM | 3.03 µM |
| COC(=O)CNC(=O)C(=O)c1c(O)c(O)c(C(C)C)c2cc(C)c(-c3c(C)cc4c(C(C)C)c(O)c(O)c(C(=O)C(=O)NCC(=O)OC)c4c3O)c(O)c12 | 1.49 µM | 5.63 µM | 1.61 µM | 6.34 µM | 1.93 | 9.28 µM | 1.79 µM | 6.04 µM | 2.23 µM | 9.48 µM | 1.88 µM | 8.75 µM |  |  | 0.832 µM | 2.13 µM | 3.74 µM | 14.3 µM | 1.29 µM | 4.58 µM |
| CCN(Cc1ccc(Cl)c(Cl)c1)c1ccc2nc(N)nc(N)c2c1C |  |  |  |  | 0.0104 | 1.63 µM | < 0.01 µM | 1.51 µM |  |  | 0.0351 µM | 1.69 µM | 0.0753 | 1.91 | 1.48 µM | 3.02 µM | < 0.0237 µM | 0.802 µM | 1.05 µM | 16.1 µM |
| COc1ccc(C2=Nn3c(nnc3-c3ccc(F)c(Cl)c3)SC2)cc1 | > 100 µM | > 100 µM | > 100 µM | > 100 µM | > 100 | > 100 µM | 61.6 µM | > 100 µM | > 100 µM | > 100 µM | > 100 µM | > 100 µM | > 100 | > 100 | > 100 µM | > 100 µM | > 100 µM | > 100 µM | > 100 µM | > 100 µM |
| O=S(=O)(F)Cc1ccccc1 |  | > 100 µM |  | > 100 µM |  | > 100 µM |  | > 100 µM |  | > 100 µM |  | > 100 µM |  | > 100 |  | > 100 µM |  | > 100 µM |  | > 100 µM |
| COc1ccc(/C=C\c2cc(OC)c(OC)c(OC)c2)cc1NC(=O)/C=C/c1ccc(OC)c(OC)c1 | 4.41 µM | > 100 µM | 6.41 µM | > 100 µM | 0.949 | > 100 µM | 4.35 µM | > 100 µM | 3.67 µM | > 100 µM | 7.29 µM | > 100 µM | > 100 | > 100 | 5.51 µM | > 100 µM | 3.55 µM | > 100 µM | 8.01 µM | > 100 µM |
